Assays:
MDA-MB-231 [1] = assay: Antitumor activity against human MDA-MB-231 cells xenografted in athymic nude mouse assessed as tumor volume on day 7 at initial dose of 1.0 mg/kg, ip qd X 4/week and dose adjustments were made based upon effect or lack of effect on average body weight (14.6 mg/kg total dose); type: functional; conditions: route intraperitoneal
[2] = Cytotoxicity against human RPMI8402 cells after 4 days by MTT assay; type: functional, cell-based; conditions: RPMI 8402, 96 h
[3] = Cytotoxicity against human KB3-1 cells after 4 days by MTT assay; type: functional, cell-based; conditions: KB 3-1, 96 h
MDA-MB-231 [4] = assay: Antitumor activity against human MDA-MB-231 cells xenografted in athymic nude mouse assessed as tumor volume on day 31 at initial dose of 1.0 mg/kg, ip qd X 4/week and dose adjustments were made based upon effect or lack of effect on average body weight (14.6 mg/kg total dose); type: functional; conditions: route intraperitoneal
[5] = target: T1, DNA topoisomerase 1 (Homo sapiens) (UniProt P11387); assay: Inhibition of human topoisomerase 1 expressed in Escherichia coli assessed as YepG plasmid DNA cleavage
T1 sequence (whole entry): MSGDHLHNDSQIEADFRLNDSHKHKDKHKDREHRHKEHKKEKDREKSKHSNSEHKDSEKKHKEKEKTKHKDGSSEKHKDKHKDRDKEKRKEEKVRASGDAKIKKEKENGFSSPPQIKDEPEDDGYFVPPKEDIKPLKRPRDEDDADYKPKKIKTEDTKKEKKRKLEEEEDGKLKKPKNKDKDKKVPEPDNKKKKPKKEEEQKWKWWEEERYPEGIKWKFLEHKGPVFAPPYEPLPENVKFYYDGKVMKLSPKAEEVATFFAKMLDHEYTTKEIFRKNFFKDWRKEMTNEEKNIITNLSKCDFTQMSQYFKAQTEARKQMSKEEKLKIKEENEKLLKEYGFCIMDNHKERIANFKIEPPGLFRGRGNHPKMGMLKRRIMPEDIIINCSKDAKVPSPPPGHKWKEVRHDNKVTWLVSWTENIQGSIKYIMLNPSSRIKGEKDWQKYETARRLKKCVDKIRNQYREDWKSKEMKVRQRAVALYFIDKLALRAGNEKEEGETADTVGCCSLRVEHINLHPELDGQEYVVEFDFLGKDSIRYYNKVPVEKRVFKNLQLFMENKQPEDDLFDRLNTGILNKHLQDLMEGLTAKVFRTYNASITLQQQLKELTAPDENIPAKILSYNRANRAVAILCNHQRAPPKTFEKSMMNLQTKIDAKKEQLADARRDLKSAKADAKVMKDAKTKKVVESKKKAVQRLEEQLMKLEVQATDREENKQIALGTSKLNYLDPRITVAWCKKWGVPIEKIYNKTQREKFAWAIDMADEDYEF

MDA-MB-231 [6] = assay: Antitumor activity against human MDA-MB-231 cells xenografted in athymic nude mouse assessed as tumor volume on day 14 at initial dose of 1.0 mg/kg, ip qd X 4/week and dose adjustments were made based upon effect or lack of effect on average body weight (14.6 mg/kg total dose); type: functional; conditions: route intraperitoneal
MDA-MB-231 [7] = assay: Antitumor activity against human MDA-MB-231 cells xenografted in athymic nude mouse assessed as tumor volume on day 7 at initial dose of 2.0 mg/kg, po qd X 4/week and dose adjustments were made based upon effect or lack of effect on average body weight (29.3 mg/kg total dose); type: functional
MDA-MB-231 [8] = assay: Antitumor activity against human MDA-MB-231 cells xenografted in athymic nude mouse assessed as tumor volume on day 14 at initial dose of 2.0 mg/kg, po qd X 4/week and dose adjustments were made based upon effect or lack of effect on average body weight (29.3 mg/kg total dose); type: functional
MDA-MB-231 [9] = assay: Antitumor activity against human MDA-MB-231 cells xenografted in athymic nude mouse assessed as tumor volume on day 21 at initial dose of 1.0 mg/kg, ip qd X 4/week and dose adjustments were made based upon effect or lack of effect on average body weight (14.6 mg/kg total dose); type: functional; conditions: route intraperitoneal
[10] = Cytotoxicity against human multidrug resistant MDR1 overexpressing human KBV1 cells after 4 days by MTT assay; type: functional, cell-based; conditions: KB-V1, 96 h
MDA-MB-231 [11] = assay: Antitumor activity against human MDA-MB-231 cells xenografted in athymic nude mouse assessed as tumor volume on day 21 at initial dose of 2.0 mg/kg, po qd X 4/week and dose adjustments were made based upon effect or lack of effect on average body weight (29.3 mg/kg total dose); type: functional
MDA-MB-231 [12] = assay: Antitumor activity against human MDA-MB-231 cells xenografted in athymic nude mouse assessed as tumor volume on day 31 at initial dose of 2.0 mg/kg, po qd X 4/week and dose adjustments were made based upon effect or lack of effect on average body weight (29.3 mg/kg total dose); type: functional
[13] = Cytotoxicity against human multidrug resistant BCRP overexpressing human KBH5.0 cells after 4 days by MTT assay; type: functional, cell-based; conditions: KBH5.0 cell, 96 h
[14] = Cytotoxicity against human camptothecin-resistant CPT-K5 cells after 4 days by MTT assay; type: functional, cell-based; conditions: CPT-K5, 96 h
P388 [15] = assay: Cytotoxicity against mouse CPT45-resistant topoisomerase 1-deficient P388 cells after 4 days by MTT assay; type: functional, cell-based; conditions: P388, 96 h
P388 [16] = assay: Cytotoxicity against mouse P388 cells after 4 days by MTT assay; type: functional, cell-based; conditions: P388, 96 h
MDA-MB-231 [17] = assay: Antitumor activity against human MDA-MB-231 cells xenografted in athymic nude mouse assessed as tumor volume on day 31 at initial dose of 3.0 mg/kg, po qd X 5/week for 2 weeks and dose adjustments were made based upon effect or lack of effect on average body weight (72.5 mg/kg total dose); type: functional
MDA-MB-231 [18] = assay: Antitumor activity against human MDA-MB-231 cells xenografted in athymic nude mouse assessed as tumor volume on day 7 at initial dose of 2.0 mg/kg, ip qd X 5/week for 2 weeks and dose adjustments were made based upon effect or lack of effect on average body weight (32.5 mg/kg total dose); type: functional; conditions: route intraperitoneal
MDA-MB-231 [19] = assay: Antitumor activity against human MDA-MB-231 cells xenografted in athymic nude mouse assessed as tumor volume on day 14 at initial dose of 3.0 mg/kg, po qd X 5/week for 2 weeks and dose adjustments were made based upon effect or lack of effect on average body weight (72.5 mg/kg total dose); type: functional
MDA-MB-231 [20] = assay: Antitumor activity against human MDA-MB-231 cells xenografted in athymic nude mouse assessed as tumor volume on day 7 at initial dose of 3.0 mg/kg, po qd X 5/week for 2 weeks and dose adjustments were made based upon effect or lack of effect on average body weight (72.5 mg/kg total dose); type: functional
MDA-MB-231 [21] = assay: Antitumor activity against human MDA-MB-231 cells xenografted in athymic nude mouse assessed as tumor volume on day 21 at initial dose of 3.0 mg/kg, po qd X 5/week for 2 weeks and dose adjustments were made based upon effect or lack of effect on average body weight (72.5 mg/kg total dose); type: functional
MDA-MB-231 [22] = assay: Antitumor activity against human MDA-MB-231 cells xenografted in athymic nude mouse assessed as tumor volume on day 31 at initial dose of 2.0 mg/kg, ip qd X 5/week for 2 weeks and dose adjustments were made based upon effect or lack of effect on average body weight (32.5 mg/kg total dose); type: functional; conditions: route intraperitoneal
MDA-MB-231 [23] = assay: Antitumor activity against human MDA-MB-231 cells xenografted in athymic nude mouse assessed as tumor volume on day 14 at initial dose of 2.0 mg/kg, ip qd X 5/week for 2 weeks and dose adjustments were made based upon effect or lack of effect on average body weight (32.5 mg/kg total dose); type: functional; conditions: route intraperitoneal
MDA-MB-231 [24] = assay: Antitumor activity against human MDA-MB-231 cells xenografted in athymic nude mouse assessed as tumor volume on day 21 at initial dose of 2.0 mg/kg, ip qd X 5/week for 2 weeks and dose adjustments were made based upon effect or lack of effect on average body weight (32.5 mg/kg total dose); type: functional; conditions: route intraperitoneal

COc1cc2c(=O)n(CCNC(C)C)c3c4cc5c(cc4nnc3c2cc1OC)OCO5
Activity (MDA-MB-231 [1]): 72 mm3 | IC50 [2]: 0.003 µM | IC50 [3]: 0.0005 µM | Activity (MDA-MB-231 [4]): 231 mm3 | REC [5]: 0.08 | Activity (MDA-MB-231 [6]): 112 mm3 | Activity (MDA-MB-231 [7]): 82 mm3 | Activity (MDA-MB-231 [8]): 92 mm3 | Activity (MDA-MB-231 [9]): 150 mm3 | IC50 [10]: 0.007 µM | Activity (MDA-MB-231 [11]): 185 mm3 | Activity (MDA-MB-231 [12]): 253 mm3 | IC50 [13]: 0.002 µM | IC50 [14]: 0.3 µM | IC50 (P388 [15]): 0.11 µM | IC50 (P388 [16]): 0.002 µM

COc1cc2c(=O)n(CCO)c3c4cc5c(cc4nnc3c2cc1OC)OCO5
IC50 [2]: 0.013 µM | IC50 [3]: 0.01 µM | REC [5]: 0.3 | IC50 [10]: 0.018 µM | IC50 [13]: 0.055 µM | IC50 [14]: 1.3 µM | IC50 (P388 [15]): 0.7 µM | IC50 (P388 [16]): 0.012 µM

COc1cc2c(=O)n(CCN(C)C)c3c4cc5c(cc4ncc3c2cc1OC)OCO5
IC50 [2]: 0.002 µM | IC50 [3]: 0.005 µM | REC [5]: 0.3 | IC50 [10]: 0.015 µM | IC50 [13]: 0.012 µM | IC50 [14]: 0.9 µM

COc1cc2c(=O)n(CCN(Cc3ccccc3)C(C)C)c3c4cc5c(cc4nnc3c2cc1OC)OCO5
IC50 [2]: 0.045 µM | IC50 [3]: 0.016 µM | REC [5]: 0.5 | IC50 [10]: 0.075 µM | IC50 [13]: 0.04 µM | IC50 [14]: 3.3 µM | IC50 (P388 [15]): 2.3 µM | IC50 (P388 [16]): 0.021 µM

COc1cc2c(=O)n(CCN(C)CCN(C)C)c3c4cc5c(cc4nnc3c2cc1OC)OCO5
IC50 [2]: 0.033 µM | IC50 [3]: 0.017 µM | REC [5]: 0.4 | IC50 [10]: 0.18 µM | IC50 [13]: 0.25 µM | IC50 [14]: 2.2 µM | IC50 (P388 [15]): 0.3 µM | IC50 (P388 [16]): 0.019 µM

COc1cc2c(=O)n(CCn3ccnc3)c3c4cc5c(cc4nnc3c2cc1OC)OCO5
IC50 [2]: 0.4 µM | IC50 [3]: 0.38 µM | REC [5]: 0.1 | IC50 [10]: 3.3 µM | IC50 [13]: 3.3 µM | IC50 [14]: > 10 µM | IC50 (P388 [15]): > 10 µM | IC50 (P388 [16]): 0.19 µM

COc1cc2c(=O)n(CCNC(CO)(CO)CO)c3c4cc5c(cc4nnc3c2cc1OC)OCO5
IC50 [2]: 0.065 µM | IC50 [3]: 0.05 µM | REC [5]: 0.2 | IC50 [10]: 0.28 µM | IC50 [13]: 0.4 µM | IC50 [14]: 5.7 µM | IC50 (P388 [15]): 3 µM | IC50 (P388 [16]): 0.04 µM

COc1cc2c(=O)n(CCN(C)C)c3c4cc5c(cc4nnc3c2cc1OC)OCO5
IC50 [2]: 0.002 µM | IC50 [3]: 0.005 µM | REC [5]: 0.3 | IC50 [10]: 0.004 µM | IC50 [13]: 0.004 µM | IC50 [14]: 0.74 µM | IC50 (P388 [15]): 0.23 µM | IC50 (P388 [16]): 0.002 µM

CC[C@@]1(O)C(=O)OCc2c1cc1n(c2=O)Cc2cc3ccccc3nc2-1 [CAMPTOTHECIN]
IC50 [2]: 0.005 µM | IC50 [3]: 0.015 µM | REC [5]: 0.2 | IC50 (P388 [15]): > 10 µM | IC50 (P388 [16]): 0.009 µM

COc1cc2c(=O)n(CCN(C)Cc3ccccc3)c3c4cc5c(cc4nnc3c2cc1OC)OCO5
IC50 [2]: 0.04 µM | IC50 [3]: 0.035 µM | REC [5]: 0.4 | IC50 [10]: 0.085 µM | IC50 [13]: 0.04 µM | IC50 [14]: > 10 µM | IC50 (P388 [15]): 2.8 µM | IC50 (P388 [16]): 0.025 µM

CNCCn1c(=O)c2cc(OC)c(OC)cc2c2nnc3cc4c(cc3c21)OCO4
Activity (MDA-MB-231 [17]): 177 mm3 | IC50 [2]: 0.003 µM | IC50 [3]: 0.0007 µM | REC [5]: 0.03 | Activity (MDA-MB-231 [18]): 146 mm3 | Activity (MDA-MB-231 [19]): 113 mm3 | IC50 [10]: 0.023 µM | Activity (MDA-MB-231 [20]): 116 mm3 | Activity (MDA-MB-231 [21]): 144 mm3 | IC50 [13]: 0.018 µM | IC50 [14]: 0.23 µM | IC50 (P388 [15]): 0.2 µM | IC50 (P388 [16]): 0.001 µM | Activity (MDA-MB-231 [22]): 104 mm3 | Activity (MDA-MB-231 [23]): 129 mm3 | Activity (MDA-MB-231 [24]): 109 mm3
